Test results published in PubChem BioAssay (NCI).
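Briefly, cells in 96-well plates were exposed to five compound concentrations for 48 h, and endpoints were estimated by linear interpolation. Abbreviation: GI50, concentration required for 50% inhibition of growth. TGI denotes the concentration required for complete inhibition of growth.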

Tests used:
Test in all cases: NCI tumour cell line growth inhibition, 48 h; in the data active = GI50 below about 0.43 µM; inactive = the rest
786-0 renal = system: 786-0 renal
A498 renal = system: A498 renal
A549 NSCLC = system: A549 NSCLC
BT-549 breast = system: BT-549 breast
CAKI-1 renal = system: CAKI-1 renal
CCRF-CEM leukemia = system: CCRF-CEM leukemia
COLO 205 colon = system: COLO 205 colon
DU-145 prostate = system: DU-145 prostate
EKVX NSCLC = system: EKVX NSCLC
HCC-2998 colon = system: HCC-2998 colon
HCT-116 colon = system: HCT-116 colon
HCT-15 colon = system: HCT-15 colon
HL-60(TB) leukemia = system: HL-60(TB) leukemia
HOP-62 NSCLC = system: HOP-62 NSCLC
HOP-92 NSCLC = system: HOP-92 NSCLC
HS 578T breast = system: HS 578T breast
HT29 colon = system: HT29 colon
IGROV1 ovarian = system: IGROV1 ovarian
K-562 leukemia = system: K-562 leukemia
KM12 colon = system: KM12 colon
LOX IMVI melanoma = system: LOX IMVI melanoma
M14 melanoma = system: M14 melanoma
MALME-3M melanoma = system: MALME-3M melanoma
MCF7 breast = system: MCF7 breast
MDA-MB-231 breast = system: MDA-MB-231 breast
MDA-MB-435 = system: MDA-MB-435
MOLT-4 leukemia = system: MOLT-4 leukemia
NCI-H226 lung = system: NCI-H226 lung
NCI-H23 lung = system: NCI-H23 lung
NCI-H460 lung = system: NCI-H460 lung
NCI-H522 lung = system: NCI-H522 lung
NCI/ADR-RES ovarian = system: NCI/ADR-RES ovarian
OVCAR-3 ovarian = system: OVCAR-3 ovarian
OVCAR-4 ovarian = system: OVCAR-4 ovarian
OVCAR-5 ovarian = system: OVCAR-5 ovarian
OVCAR-8 ovarian = system: OVCAR-8 ovarian
PC-3 prostate = system: PC-3 prostate
RPMI-8226 leukemia = system: RPMI-8226 leukemia
RXF 393 renal = system: RXF 393 renal
SF-268 CNS = system: SF-268 CNS
SF-295 CNS = system: SF-295 CNS
SF-539 CNS = system: SF-539 CNS
SK-MEL-2 melanoma = system: SK-MEL-2 melanoma
SK-MEL-28 melanoma = system: SK-MEL-28 melanoma
SK-MEL-5 melanoma = system: SK-MEL-5 melanoma
SK-OV-3 ovarian = system: SK-OV-3 ovarian
SN12C renal = system: SN12C renal
SNB-19 CNS = system: SNB-19 CNS
SNB-75 CNS = system: SNB-75 CNS
SR leukemia = system: SR leukemia
SW-620 colon = system: SW-620 colon
T-47D breast = system: T-47D breast
TK-10 renal = system: TK-10 renal
U251 CNS = system: U251 CNS
UACC-257 melanoma = system: UACC-257 melanoma
UACC-62 melanoma = system: UACC-62 melanoma
UO-31 renal = system: UO-31 renal
ACHN renal = system: ACHN renal
MDA-N = system: MDA-N

C[C@@H]1CC[C@@H]2[C@@H]1[C@H](OC(=O)/C=C/c1ccccc1)[C@]1(C3CCCCC3)C[C@@H](OC(=O)CO)[C@@]2(C)O1
8.05 µM: TGI (HT29 colon)
16.1 µM: TGI (SK-MEL-2 melanoma)
14.1 µM: TGI (A549 NSCLC) | TGI (CCRF-CEM leukemia)
10.8 µM: TGI (KM12 colon) | TGI (MCF7 breast)
20.2 µM: TGI (SK-OV-3 ovarian)
18.7 µM: TGI (UACC-257 melanoma)
13.6 µM: TGI (SNB-19 CNS)
6.75 µM: TGI (NCI-H522 lung)
14.8 µM: TGI (NCI-H23 lung)
11 µM: TGI (CAKI-1 renal) | TGI (MDA-MB-435)
0.0978 µM: TGI (HS 578T breast)
7.49 µM: TGI (RPMI-8226 leukemia)
7.93 µM: TGI (HCT-15 colon)
9.17 µM: TGI (HOP-92 NSCLC)
5.2 µM: TGI (NCI/ADR-RES ovarian)
6.9 µM: TGI (SR leukemia)
14 µM: TGI (HOP-62 NSCLC)
15.2 µM: TGI (M14 melanoma)
6.11 µM: TGI (SK-MEL-5 melanoma)
inactive: GI50 (786-0 renal) 1.17 µM | GI50 (A549 NSCLC) 4.03 µM | GI50 (CCRF-CEM leukemia) 4.45 µM | GI50 (COLO 205 colon) 3.12 µM | GI50 (DU-145 prostate) 3.99 µM | GI50 (EKVX NSCLC) 3.47 µM | GI50 (HCC-2998 colon) 1.94 µM | GI50 (HCT-116 colon) 1.92 µM | GI50 (HCT-15 colon) 2.44 µM | GI50 (HL-60(TB) leukemia) 2.75 µM | GI50 (HOP-62 NSCLC) 3.3 µM | GI50 (HOP-92 NSCLC) 2.68 µM | GI50 (HT29 colon) 2.89 µM | GI50 (IGROV1 ovarian) 3.84 µM | GI50 (K-562 leukemia) 3.88 µM | GI50 (KM12 colon) 3.1 µM | GI50 (LOX IMVI melanoma) 1.67 µM | GI50 (M14 melanoma) 3.57 µM | GI50 (MALME-3M melanoma) 2.48 µM | GI50 (MCF7 breast) 2.58 µM | GI50 (MDA-MB-231 breast) 2.47 µM | GI50 (MDA-MB-435) 2.99 µM | GI50 (MOLT-4 leukemia) 2.61 µM | GI50 (NCI-H226 lung) 2.06 µM | GI50 (NCI-H23 lung) 3.88 µM | GI50 (NCI-H460 lung) 2.62 µM | GI50 (NCI-H522 lung) 2.4 µM | GI50 (NCI/ADR-RES ovarian) 0.515 µM | GI50 (OVCAR-3 ovarian) 2.53 µM | GI50 (OVCAR-4 ovarian) 3.92 µM | GI50 (OVCAR-5 ovarian) 1.93 µM | GI50 (OVCAR-8 ovarian) 0.513 µM | GI50 (PC-3 prostate) 3.04 µM | GI50 (RPMI-8226 leukemia) 2.99 µM | GI50 (SF-268 CNS) 1.48 µM | GI50 (SF-295 CNS) 3.6 µM | GI50 (SF-539 CNS) 5.48 µM | GI50 (SK-MEL-2 melanoma) 4.03 µM | GI50 (SK-MEL-28 melanoma) 3.59 µM | GI50 (SK-MEL-5 melanoma) 2.36 µM | GI50 (SK-OV-3 ovarian) 6.71 µM | GI50 (SNB-19 CNS) 3.94 µM | GI50 (SNB-75 CNS) 1.09 µM | GI50 (SR leukemia) 2.6 µM | GI50 (SW-620 colon) 4.43 µM | GI50 (T-47D breast) 2.64 µM | GI50 (TK-10 renal) 9.17 µM | GI50 (U251 CNS) 2.7 µM | GI50 (UACC-257 melanoma) 5.1 µM | GI50 (UACC-62 melanoma) 3.11 µM
14.6 µM: TGI (K-562 leukemia)
7.3 µM: TGI (OVCAR-3 ovarian)
0.0572 µM: TGI (A498 renal)
10.7 µM: TGI (T-47D breast)
3.07 µM: TGI (786-0 renal)
11.1 µM: TGI (COLO 205 colon)
16 µM: TGI (OVCAR-4 ovarian)
0.03 µM: TGI (UO-31 renal)
3.16 µM: TGI (RXF 393 renal)
3.92 µM: TGI (HCC-2998 colon)
10.1 µM: TGI (UACC-62 melanoma)
13.1 µM: TGI (SF-295 CNS)
15.1 µM: TGI (SK-MEL-28 melanoma)
18.5 µM: TGI (SF-539 CNS)
5.56 µM: TGI (NCI-H226 lung)
3.27 µM: TGI (LOX IMVI melanoma)
6.07 µM: TGI (MOLT-4 leukemia)
5.59 µM: TGI (OVCAR-5 ovarian)
0.729 µM: TGI (BT-549 breast)
15.6 µM: TGI (EKVX NSCLC)
16.9 µM: TGI (SW-620 colon)
6.61 µM: TGI (MDA-MB-231 breast)
6.55 µM: TGI (NCI-H460 lung)
active: GI50 (A498 renal) 0.0191 µM | GI50 (BT-549 breast) 0.0337 µM | GI50 (CAKI-1 renal) 0.0347 µM | GI50 (HS 578T breast) 0.0237 µM | GI50 (RXF 393 renal) 0.0779 µM | GI50 (SN12C renal) 0.086 µM | GI50 (UO-31 renal) 0.015 µM
13 µM: TGI (OVCAR-8 ovarian)
14.7 µM: TGI (DU-145 prostate) | TGI (SNB-75 CNS)
8.26 µM: TGI (U251 CNS)
9.86 µM: TGI (SF-268 CNS)
22.5 µM: TGI (TK-10 renal)
11.3 µM: TGI (PC-3 prostate)
6.43 µM: TGI (HL-60(TB) leukemia)
15 µM: TGI (IGROV1 ovarian)
4.13 µM: TGI (HCT-116 colon)
3.56 µM: TGI (SN12C renal)
7.21 µM: TGI (MALME-3M melanoma)

c1ccc(CCNc2ccccn2)nc1
> 100 µM: TGI (786-0 renal) | TGI (A498 renal) | TGI (A549 NSCLC) | TGI (ACHN renal) | TGI (BT-549 breast) | TGI (CAKI-1 renal) | TGI (CCRF-CEM leukemia) | TGI (COLO 205 colon) | TGI (DU-145 prostate) | TGI (EKVX NSCLC) | TGI (HCC-2998 colon) | TGI (HCT-116 colon) | TGI (HCT-15 colon) | TGI (HL-60(TB) leukemia) | TGI (HOP-62 NSCLC) | TGI (HOP-92 NSCLC) | TGI (HS 578T breast) | TGI (HT29 colon) | TGI (IGROV1 ovarian) | TGI (KM12 colon) | TGI (LOX IMVI melanoma) | TGI (M14 melanoma) | TGI (MALME-3M melanoma) | TGI (MCF7 breast) | TGI (MDA-MB-231 breast) | TGI (MDA-MB-435) | TGI (MDA-N) | TGI (NCI-H226 lung) | TGI (NCI-H23 lung) | TGI (NCI-H460 lung) | TGI (NCI-H522 lung) | TGI (NCI/ADR-RES ovarian) | TGI (OVCAR-3 ovarian) | TGI (OVCAR-4 ovarian) | TGI (OVCAR-5 ovarian) | TGI (OVCAR-8 ovarian) | TGI (PC-3 prostate) | TGI (RXF 393 renal) | TGI (SF-268 CNS) | TGI (SF-295 CNS) | TGI (SK-MEL-2 melanoma) | TGI (SK-MEL-28 melanoma) | TGI (SK-MEL-5 melanoma) | TGI (SK-OV-3 ovarian) | TGI (SN12C renal) | TGI (SNB-19 CNS) | TGI (SW-620 colon) | TGI (TK-10 renal) | TGI (U251 CNS) | TGI (UACC-257 melanoma) | TGI (UACC-62 melanoma) | TGI (UO-31 renal)

Cc1cc2oc(=N)c(C#N)c(C)c2cc1C
33.2 µM: TGI (MOLT-4 leukemia)
> 100 µM: TGI (786-0 renal) | TGI (A498 renal) | TGI (A549 NSCLC) | TGI (ACHN renal) | TGI (BT-549 breast) | TGI (CAKI-1 renal) | TGI (CCRF-CEM leukemia) | TGI (COLO 205 colon) | TGI (DU-145 prostate) | TGI (EKVX NSCLC) | TGI (HCC-2998 colon) | TGI (HCT-116 colon) | TGI (HCT-15 colon) | TGI (HL-60(TB) leukemia) | TGI (HOP-62 NSCLC) | TGI (HOP-92 NSCLC) | TGI (HS 578T breast) | TGI (HT29 colon) | TGI (IGROV1 ovarian) | TGI (K-562 leukemia) | TGI (KM12 colon) | TGI (LOX IMVI melanoma) | TGI (M14 melanoma) | TGI (MALME-3M melanoma) | TGI (MCF7 breast) | TGI (MDA-MB-231 breast) | TGI (MDA-MB-435) | TGI (MDA-N) | TGI (NCI-H226 lung) | TGI (NCI-H23 lung) | TGI (NCI-H460 lung) | TGI (NCI/ADR-RES ovarian) | TGI (OVCAR-3 ovarian) | TGI (OVCAR-4 ovarian) | TGI (OVCAR-5 ovarian) | TGI (OVCAR-8 ovarian) | TGI (PC-3 prostate) | TGI (RPMI-8226 leukemia) | TGI (SF-268 CNS) | TGI (SF-295 CNS) | TGI (SF-539 CNS) | TGI (SK-MEL-2 melanoma) | TGI (SK-MEL-28 melanoma) | TGI (SK-MEL-5 melanoma) | TGI (SK-OV-3 ovarian) | TGI (SN12C renal) | TGI (SNB-19 CNS) | TGI (SW-620 colon) | TGI (T-47D breast) | TGI (TK-10 renal) | TGI (U251 CNS) | TGI (UACC-257 melanoma) | TGI (UACC-62 melanoma) | TGI (UO-31 renal)
87.3 µM: TGI (RXF 393 renal)
79.8 µM: TGI (SNB-75 CNS)
